# Patent US20070173539A1, “Use of malonomicin and analogs in fungicidal applications” (priority 2006, published 2007)
# Tests used:
# Assay type in all cases: in vivo
# [1] = test system: Plasmopara viticola (PLASVI); experiment: Downy Mildew of Grape one day protectant (1DP); conditions: grape (Carignane), sprayed to runoff, rate 200 ppm
# Procedure: Final treatment volumes were obtained by adding 0.1 percent aqueous Ethomeen T25 or 0.1 percent aqueous Spraymate X77+0.1 percent wt./vol. ammonium sulfate^+. Downy Mildew of Grape (Plasmopara viticola-[…]) Vines (cultivar Carignane) were grown from seed in a soilless peat-based potting mixture “Metro-Mix 360” (W.R Grace and Co.) until the seedlings were 10-20 cm tall. These plants were then sprayed to runoff with the test compound at a rate of 200 ppm. After 24 hours the test plants were inoculated by spraying with an aqueous sporangia suspension of Plasmopara viticola ([…]). The plants were then transferred to a dew chamber for 24 hours, then to the greenhouse until disease developed on the untreated control plants.
# [2] = test system: Phytophthora infestans (PHYTIN); conditions: 1DP, tomato (rutgers), sprayed to runoff, rate 200 ppm
# [3] = test system: Erysiphe graminis f. sp. tritici (ERYSGT); experiment: Powdery Mildew of Wheat one day protectant (1DP); conditions: wheat (Monon), sprayed to runoff, rate 200 ppm
# Procedure: Final treatment volumes were obtained by adding 0.1 percent aqueous Ethomeen T25 or 0.1 percent aqueous Spraymate X77+0.1 percent wt./vol. ammonium sulfate^+. Powdery Mildew of Wheat (Erysiphe graminis f. sp. tritici-[…]) Wheat (cultivar Monon) was grown in plastic pots (6.2 cm×8.75 cm) containing 50 percent mineral soil, 50 percent Metro-Mix 360 (W.R Grace and Co.) until the seedlings were 10-20 cm tall. These plants were then sprayed to runoff with the test compound at a rate of 200 ppm. After 24 hours the test plants were inoculated with Erysiphe graminis f. sp. tritici ([…]) by dusting spores from stock plants onto the test plants. The plants were then transferred to the greenhouse until disease developed on the untreated control plants.
# [4] = test system: Venturia inaequalis (VENTIN); experiment: Apple Scab one day protectant (1DP); conditions: 0.1 percent Spraymate X77 + 0.1 percent ammonium sulfate
# [5] = test system: Venturia inaequalis (VENTIN); experiment: Apple Scab curative (compound added 2 days after inoculation); conditions: Curative at 200 ppm
smiles,measurement,setting,value
"NC[C@@H]1NC(=O)C(C(=O)CC(NC(=O)[C@@H](N)CO)(C(=O)O)C(=O)O)=C1O [Compound I, {[(2S)-2-amino-3-hydroxypropanoyl]amino}{2-[(5S)-5-(aminomethyl)-4-hydroxy-2-oxo-2,5-dihydro-1H-pyrrol-3-yl]-2-oxoethyl}malonic acid]",PLASVI percent control of plant disease,[1],++ (++ = 75-100 percent control of plant disease)
same,PHYTIN percent control of plant disease,[2],++ (++ = 75-100 percent control of plant disease)
same,ERYSGT percent control of plant disease,[3],− (− = 0-29 percent control of plant disease)
same,VENTIN percent control of plant disease,[4]; 50 ppm,++ (++ = 75-100 percent control of plant disease)
same,VENTIN percent control of plant disease,[4]; 100 ppm,++ (++ = 75-100 percent control of plant disease)
same,VENTIN percent control of plant disease,[4]; rate 200 ppm,+ (+ = 30-74 percent control of plant disease)
same,VENTIN percent control of plant disease,[5],++ (++ = 75-100 percent control of plant disease)
